Assays:
[1] = molecular target: T1, Tyrosine-protein phosphatase non-receptor type 1 (Homo sapiens) (UniProt P18031); assay: Inhibition of PTP1B (unknown origin) at 10 micromol/L by DAS-ELISA; details: dose 10.0 µmol/L
T1 sequence (whole entry): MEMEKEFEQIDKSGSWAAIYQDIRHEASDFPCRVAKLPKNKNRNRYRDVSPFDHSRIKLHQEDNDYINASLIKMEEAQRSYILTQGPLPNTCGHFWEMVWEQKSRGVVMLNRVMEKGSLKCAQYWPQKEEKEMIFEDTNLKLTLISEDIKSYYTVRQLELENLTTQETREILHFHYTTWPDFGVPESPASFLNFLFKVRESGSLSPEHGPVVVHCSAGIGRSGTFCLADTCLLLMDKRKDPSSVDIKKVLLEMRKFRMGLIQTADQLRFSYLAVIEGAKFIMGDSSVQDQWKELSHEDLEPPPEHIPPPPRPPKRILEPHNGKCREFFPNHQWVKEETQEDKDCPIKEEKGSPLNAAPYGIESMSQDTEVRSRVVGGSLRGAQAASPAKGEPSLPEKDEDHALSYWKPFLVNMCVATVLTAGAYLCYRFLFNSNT

Homo sapiens [2] = species: Homo sapiens; assay: Selectivity ratio of IC50 for TCPTP (unknown origin) to IC50 for PTP1B (unknown origin) by DAS-ELISA
Homo sapiens [3] = species: Homo sapiens; assay: Selectivity ratio of IC50 for CDC25B (unknown origin) to IC50 for PTP1B (unknown origin) by DAS-ELISA
[4] = molecular target: T2, Tyrosine-protein phosphatase non-receptor type 2 (Homo sapiens, UniProt P17706); assay: Inhibition of TCPTP (unknown origin) by DAS-ELISA
T2 sequence (P17706 whole entry): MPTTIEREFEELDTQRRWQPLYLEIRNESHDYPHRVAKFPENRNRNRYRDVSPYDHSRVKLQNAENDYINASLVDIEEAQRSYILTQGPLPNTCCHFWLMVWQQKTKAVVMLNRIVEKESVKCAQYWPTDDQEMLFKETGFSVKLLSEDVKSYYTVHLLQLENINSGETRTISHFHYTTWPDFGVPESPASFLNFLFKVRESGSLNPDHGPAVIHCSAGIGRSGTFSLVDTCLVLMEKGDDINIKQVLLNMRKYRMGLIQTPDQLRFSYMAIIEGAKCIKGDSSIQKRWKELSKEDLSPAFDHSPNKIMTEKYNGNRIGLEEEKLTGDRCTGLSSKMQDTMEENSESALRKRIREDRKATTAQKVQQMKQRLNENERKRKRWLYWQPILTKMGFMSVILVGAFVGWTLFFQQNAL

[5] = molecular target: T3, M-phase inducer phosphatase 2 (Homo sapiens, UniProt P30305); assay: Inhibition of CDC25B (unknown origin) by DAS-ELISA
T3 sequence (P30305 whole entry): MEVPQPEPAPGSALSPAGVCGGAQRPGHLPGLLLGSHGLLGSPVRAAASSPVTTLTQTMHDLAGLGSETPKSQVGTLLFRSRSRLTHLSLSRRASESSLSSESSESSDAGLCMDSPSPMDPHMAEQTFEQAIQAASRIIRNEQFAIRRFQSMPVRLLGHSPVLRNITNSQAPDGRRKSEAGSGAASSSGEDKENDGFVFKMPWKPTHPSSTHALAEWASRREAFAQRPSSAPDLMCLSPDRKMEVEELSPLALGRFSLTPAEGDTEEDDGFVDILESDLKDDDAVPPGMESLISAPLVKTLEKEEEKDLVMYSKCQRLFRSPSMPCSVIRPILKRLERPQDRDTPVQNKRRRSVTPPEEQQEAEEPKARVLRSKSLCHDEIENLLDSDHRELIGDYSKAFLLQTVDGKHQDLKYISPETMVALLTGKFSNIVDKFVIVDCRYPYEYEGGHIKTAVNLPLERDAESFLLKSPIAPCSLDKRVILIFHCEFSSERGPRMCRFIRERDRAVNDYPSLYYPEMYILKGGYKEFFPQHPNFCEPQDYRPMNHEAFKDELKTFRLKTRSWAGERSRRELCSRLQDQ

[6] = molecular target: T4, Tyrosine-protein phosphatase non-receptor type 1 (Homo sapiens, UniProt P18031); assay: Inhibition of PTP1B (unknown origin) by DAS-ELISA
T4 sequence (P18031 whole entry): T1 sequence (whole entry)

| inhibition [1] | Compound | other results |
| --- | --- | --- |
| 74% | CC(=O)O[C@@H]1C[C@]23CC[C@H]4[C@@](C)(CCC[C@@]4(C)C(=O)O)[C@@H]2CC[C@@]1(C)C3 |  |
| 76.3% | CCCOC(=O)[C@]1(C)CCC[C@@]2(C)[C@@H]3CC[C@@]4(C)C[C@]3(CC[C@@H]21)C/C4=N\O |  |
| 73.9% | CCOC(=O)[C@]1(C)CCC[C@@]2(C)[C@@H]3CC[C@@]4(C)C[C@]3(CC[C@@H]21)CC4=O |  |
| 50.8% | CCOC(=O)[C@]1(C)CCC[C@@]2(C)[C@@H]3CC[C@@]4(C)C[C@]3(CC[C@@H]21)C/C4=N\O |  |
| 82.6% | C[C@@]12CC[C@@H]3[C@@](CC[C@H]4[C@@]3(C)CCC[C@@]4(C)C(=O)OCc3ccccc3I)(CC1=O)C2 | Ratio IC50 (Homo sapiens [2]): 3.5; Ratio IC50 (Homo sapiens [3]): 6; IC50 [4]: 1410 nM; IC50 [5]: 3240 nM; IC50 [6]: 400 nM |
| 73.6% | C[C@@]12CC[C@@H]3[C@@](CC[C@H]4[C@@]3(C)CCC[C@@]4(C)C(=O)OCCBr)(CC1=O)C2 |  |
| 76% | C[C@@]12CC[C@@H]3[C@@](CC[C@H]4[C@@]3(C)CCC[C@@]4(C)C(=O)OCc3cccc(C#N)c3)(CC1=O)C2 |  |
| 71.5% | CCOC(=O)[C@]1(C)CCC[C@@]2(C)[C@@H]3CC[C@@]4(C)C[C@]3(CC[C@@H]21)C/C4=N\OC |  |
| 43.8% | C[C@@]12CC[C@@H]3[C@@](CC[C@H]4[C@@]3(C)CCC[C@@]4(C)C(=O)OCc3ccccc3Cl)(CC1=O)C2 |  |
| 71.8% | Cc1ccc(COC(=O)[C@]2(C)CCC[C@@]3(C)[C@@H]4CC[C@@]5(C)C[C@]4(CC[C@@H]32)CC5=O)cc1 |  |
| 71.9% | C[C@@]12CC[C@@H]3[C@@](CC[C@H]4[C@@]3(C)CCC[C@@]4(C)C(=O)OCCCCCBr)(CC1=O)C2 |  |

Second part, the compound before the results:

| Compound | inhibition [1] | other results |
| --- | --- | --- |
| C[C@@]12CC[C@@H]3[C@@](CC[C@H]4[C@@]3(C)CCC[C@@]4(C)C(=O)OCc3ccc(Br)cc3)(CC1=O)C2 | 79.6% | Ratio IC50 (Homo sapiens [2]): 3.5; Ratio IC50 (Homo sapiens [3]): 6; IC50 [4]: 3240 nM; IC50 [5]: 3550 nM; IC50 [6]: 330 nM |
| C[C@@]12CC[C@@H]3[C@@](CC[C@H]4[C@@]3(C)CCC[C@@]4(C)C(=O)OCCCCN3CCCCC3)(CC1=O)C2 | 77.7% |  |
| C[C@@]12CC[C@@H]3[C@@](CC[C@H]4[C@@]3(C)CCC[C@@]4(C)C(=O)O)(C/C1=N\O)C2 | 61.9% |  |
| C[C@@]12CC[C@@H]3[C@@](CC[C@H]4[C@@]3(C)CCC[C@@]4(C)C(=O)O)(C[C@H]1O)C2 | 36.2% |  |
| CCOC(=O)[C@]1(C)CCC[C@@]2(C)[C@@H]3CC[C@@]4(C)C[C@]3(CC[C@@H]21)C[C@H]4OC(=O)c1ccc(O)cc1 | 79% | Ratio IC50 (Homo sapiens [2]): 3.5; Ratio IC50 (Homo sapiens [3]): 6; IC50 [4]: 2630 nM; IC50 [5]: 2340 nM; IC50 [6]: 360 nM |
| C[C@@]12CC[C@@H]3[C@@](CC[C@H]4[C@@]3(C)CCC[C@@]4(C)C(=O)O)(CC1=O)C2 [ISOSTEVIOL] | 63.6% | IC50 [4]: 1580 nM; IC50 [5]: 2090 nM; IC50 [6]: 2270 nM |
| CCOC(=O)[C@]1(C)CCC[C@@]2(C)[C@@H]3CC[C@@]4(C)C[C@]3(CC[C@@H]21)C[C@H]4O | 67.2% |  |
| CCOC(=O)[C@]1(C)CCC[C@@]2(C)[C@@H]3CC[C@@]4(C)C[C@]3(CC[C@@H]21)C[C@H]4OC(=O)c1ccccc1 | 75.5% |  |
| CCCOC(=O)[C@]1(C)CCC[C@@]2(C)[C@@H]3CC[C@@]4(C)C[C@]3(CC[C@@H]21)CC4=O | 61.9% |  |
| CCOC(=O)[C@]1(C)CCC[C@@]2(C)[C@@H]3CC[C@@]4(C)C[C@]3(CC[C@@H]21)[C@H](Br)C4=O | 81.7% | Ratio IC50 (Homo sapiens [2]): 7; Ratio IC50 (Homo sapiens [3]): 14; IC50 [4]: 1700 nM; IC50 [5]: 3310 nM; IC50 [6]: 240 nM |
| C[C@@]12CC[C@@H]3[C@@](CC[C@H]4[C@@]3(C)CCC[C@@]4(C)C(=O)OCCN3CCCCC3)(CC1=O)C2 | 74.2% |  |
| COC(=O)[C@]1(C)CCC[C@@]2(C)[C@@H]3CC[C@@]4(C)C[C@]3(CC[C@@H]21)C/C4=N\O | 22% |  |
| C[C@@]12CC[C@@H]3[C@@](CC[C@H]4[C@@]3(C)CCC[C@@]4(C)C(=O)OCc3ccccc3)(CC1=O)C2 | 52.4% |  |
| C[C@@]12CC[C@@H]3[C@@](CC[C@H]4[C@@]3(C)CCC[C@@]4(C)C(=O)OCc3ccccc3Br)(CC1=O)C2 | 50.3% |  |
| COC(=O)[C@]1(C)CCC[C@@]2(C)[C@@H]3CC[C@@]4(C)C[C@]3(CC[C@@H]21)CC4=O | 70.1% |  |
| C[C@@]12CC[C@@H]3[C@@](CC[C@H]4[C@@]3(C)CCC[C@@]4(C)C(=O)OCCCCBr)(CC1=O)C2 | 70.9% |  |
| Cc1ccc(S(=O)(=O)N/N=C2/C[C@]34CC[C@H]5[C@@](C)(CCC[C@@]5(C)C(=O)O)[C@@H]3CC[C@@]2(C)C4)cc1 | 75.3% |  |
| C[C@@]12CC[C@@H]3[C@@](CC[C@H]4[C@@]3(C)CCC[C@@]4(C)C(=O)OCCN3CCNCC3)(CC1=O)C2 | 78.5% | IC50 [6]: 800 nM |

Source: ChEMBL document CHEMBL5257065, “Isosteviol derivatives as protein tyrosine Phosphatase-1B inhibitors: Synthesis, biological evaluation and molecular docking” (Bioorg Med Chem, 2023)
